Reference: patent EP4813993A1, “COMPOUND, PREPARATION METHOD THEREFOR, AND USE THEREOF” (Sichuan Kelun Pharmaceutical Research Institute Co., Ltd., priority 2023, dated 2025)

Columns and labels:
[1] = Tissue distribution study (dorsal root ganglia) in SD rats; type: in vivo; conditions: male, rat, oral administration 10 mg/kg
Procedure: Experimental Example 5: Tissue distribution study of compounds in SD rats
Experimental animals: SD rats, male, 6-8 weeks old.
(§1) Compound preparation: 5% (final preparation volume) of DMSO was added to dissolve the test compound, and then 10% (final preparation volume) of Cremophor EL and 85% Saline were sequentially added.
Experimental design: The test compounds were administered to SD rats as a single dose via oral administration (10 mg/kg; n = 3, 3 time points). Blood samples were collected at 0.5 h, 2 h, and 6 h after oral administration, followed by sacrifice of the animals. Dorsal root ganglia were collected, rinsed with ice-cold normal saline to remove residual blood, blotted dry with absorbent paper, and stored at -70 °C for analysis.
Sample test: The concentrations of the designated compound drugs in plasma and tissues were determined by the LC-MS/MS method.

[2] = molecular target: T1, Nav1.8 channels (Homo sapiens, UniProt Q9Y5Y9); assay: Manual patch-clamp, current of stably overexpressed Nav1.8 channels (resting state voltage program); type: cell-based
T1 construct: expressed in transfected cells
How it was run: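 Whole-cell manual patch clamp on cells stably overexpressing Nav1.8, held at -120 mV and stepped to 0 mV for 50 ms every 20 s (resting-state protocol). Compounds were perfused in ascending concentrations, each for 5 min or until stable; block of peak current was calculated at steady state.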

[3] = Pharmacokinetic study in ICR mice; type: in vivo; conditions: male, mouse, plasma
[4] = tested on: incision pain model; assay: Incision pain model in ICR mice, Von Frey test; type: in vivo; conditions: 50 mg/kg single dose, Mean + SEM, n = 10
[5] = tested on: incision pain model; assay: Incision pain model in ICR mice, Von Frey test; type: in vivo; conditions: Mean + SEM, n = 10
Procedure: Experimental Example 6: Pharmacodynamic effect study of compounds in incision pain model in ICR mice Experimental animals: ICR mice, male, 28-35 g.
as §1
A plantar incision pain model was established in mice via surgery before the administration and test. Mice were placed in an anesthesia induction chamber and given 3%-4% isoflurane for anesthesia induction. After the anesthesia induction, a breathing mask was applied, and the isoflurane concentration was adjusted to 1%-2% to prevent the mice from suffering pain during the surgery. Each mouse was placed in a supine position, and the surgical site was disinfected with alcohol and iodophor. Under sterile conditions, a 0.5 cm longitudinal incision was made on the left hind paw surface, 0.2 cm away from the heel, extending toward the toes. The skin and fascia were incised; the plantar muscle was separated, slightly lifted, and longitudinally incised. The skin was then sutured with 5-0 sutures and disinfected.
2. Administration and test
The Von Frey test was performed once before the surgery. On the second day after animal modeling, the test was repeated, and animals meeting the baseline requirements were selected for enrollment. The animals were randomly grouped based on the 50% PWT values, with 10 animals per group. Administration was performed under a double-blind test protocol. The 50% PWT of the animals was measured separately before administration (baseline) and at 0.5 h, 2 h, and 4 h after administration, and a single dose was administered. The model control group was given normal saline, while the compound groups were given the compounds according to the administration doses in the table below.

T1 sequence (Q9Y5Y9 whole entry): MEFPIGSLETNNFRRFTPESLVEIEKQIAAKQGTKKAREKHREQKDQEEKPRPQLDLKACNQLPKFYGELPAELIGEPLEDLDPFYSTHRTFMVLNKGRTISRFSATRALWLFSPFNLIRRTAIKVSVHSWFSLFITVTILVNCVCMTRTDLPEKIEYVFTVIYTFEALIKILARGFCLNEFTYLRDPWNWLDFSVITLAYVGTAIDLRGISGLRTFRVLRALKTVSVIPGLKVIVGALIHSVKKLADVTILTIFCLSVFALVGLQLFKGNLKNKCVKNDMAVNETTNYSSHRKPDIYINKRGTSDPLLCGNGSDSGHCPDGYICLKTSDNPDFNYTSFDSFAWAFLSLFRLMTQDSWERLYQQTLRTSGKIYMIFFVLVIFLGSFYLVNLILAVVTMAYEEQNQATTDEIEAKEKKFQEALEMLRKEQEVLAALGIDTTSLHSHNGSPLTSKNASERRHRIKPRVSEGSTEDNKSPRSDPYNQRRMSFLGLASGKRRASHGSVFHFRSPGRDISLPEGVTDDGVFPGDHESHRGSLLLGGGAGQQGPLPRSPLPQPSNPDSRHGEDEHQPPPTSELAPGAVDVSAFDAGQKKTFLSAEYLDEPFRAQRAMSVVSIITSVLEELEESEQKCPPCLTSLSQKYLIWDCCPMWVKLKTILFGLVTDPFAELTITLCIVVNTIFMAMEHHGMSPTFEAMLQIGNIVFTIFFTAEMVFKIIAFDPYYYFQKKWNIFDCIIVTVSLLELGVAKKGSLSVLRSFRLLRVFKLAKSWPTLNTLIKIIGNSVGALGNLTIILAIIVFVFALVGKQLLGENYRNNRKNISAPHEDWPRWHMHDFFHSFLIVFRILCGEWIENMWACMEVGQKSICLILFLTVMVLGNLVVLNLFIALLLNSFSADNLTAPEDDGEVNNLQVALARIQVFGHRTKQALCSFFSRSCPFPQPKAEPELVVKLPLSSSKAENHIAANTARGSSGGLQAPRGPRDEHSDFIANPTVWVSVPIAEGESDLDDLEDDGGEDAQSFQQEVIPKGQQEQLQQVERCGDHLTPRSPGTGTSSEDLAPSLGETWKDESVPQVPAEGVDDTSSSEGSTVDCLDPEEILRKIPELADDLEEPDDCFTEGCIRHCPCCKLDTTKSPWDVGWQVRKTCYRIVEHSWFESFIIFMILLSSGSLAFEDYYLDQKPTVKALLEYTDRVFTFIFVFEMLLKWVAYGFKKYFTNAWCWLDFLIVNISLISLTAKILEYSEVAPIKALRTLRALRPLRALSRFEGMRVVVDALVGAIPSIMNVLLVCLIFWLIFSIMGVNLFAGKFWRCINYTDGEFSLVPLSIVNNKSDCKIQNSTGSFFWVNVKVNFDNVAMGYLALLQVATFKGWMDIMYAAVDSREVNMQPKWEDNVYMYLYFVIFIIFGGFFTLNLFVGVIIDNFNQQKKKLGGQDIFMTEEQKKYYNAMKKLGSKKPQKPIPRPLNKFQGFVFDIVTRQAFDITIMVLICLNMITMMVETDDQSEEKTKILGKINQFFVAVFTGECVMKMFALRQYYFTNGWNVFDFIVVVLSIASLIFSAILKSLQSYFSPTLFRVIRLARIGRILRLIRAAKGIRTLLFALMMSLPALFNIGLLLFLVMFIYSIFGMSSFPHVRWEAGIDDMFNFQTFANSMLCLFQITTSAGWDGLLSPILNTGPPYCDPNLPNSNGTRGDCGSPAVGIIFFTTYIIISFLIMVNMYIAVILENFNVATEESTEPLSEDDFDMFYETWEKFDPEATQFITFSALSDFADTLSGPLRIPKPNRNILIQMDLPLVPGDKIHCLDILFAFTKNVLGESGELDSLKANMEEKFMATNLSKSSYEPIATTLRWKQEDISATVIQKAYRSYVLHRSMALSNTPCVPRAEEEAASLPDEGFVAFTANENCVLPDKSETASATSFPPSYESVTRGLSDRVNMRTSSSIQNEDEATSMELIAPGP

SMILES: COc1c([C@@H]2C[C@](C)(C(F)(F)F)SC2C(=O)Nc2ccnc([N+](=O)[O-])c2)ccc(F)c1F (stereo in doubt) [a-7-A, (2S,3S,5R)-3-(3,4-difluoro-2-methoxyphenyl)-5-methyl-N-(2-nitropyridin-4-yl)-5-(trifluoromethyl)tetrahydrothiophene-2-carboxamide]
- concentration at 0.5 h ([1]; Time 0.5 h): 115 ng/g
- concentration at 2 h ([1]; Time 2 h): 768 ng/g
- concentration at 6 h ([1]; Time 6 h): 557 ng/g
- IC50 [2]: 0.15 nM
- AUC(0-inf) ([3]; Oral administration, 10 mg/kg): 10200 ng·h/mL
- AUC(0-inf) ([3]; iv, Injection (i.v.), 2 mg/kg): 2090 ng·h/mL
- PWT 50% value (g) AUC0-8h [4]: 3.62 ± 1.28 g·h
- PWT 50% value (g) Post-surgery, Preadministration ([5]; 50 mg/kg group, baseline before administration): 0.27 ± 0.13 g
- PWT 50% value (g) Pre-surgery ([5]; 50 mg/kg group, baseline before surgery): 1.43 ± 0.43 g
- PWT 50% value (g) 0.5 h ([5]; 50 mg/kg single dose, 0.5 h after administration): 0.47 ± 0.16 g
- PWT 50% value (g) 2 h ([5]; 50 mg/kg single dose, 2 h after administration): 0.72 ± 0.35 g
- PWT 50% value (g) 4 h ([5]; 50 mg/kg single dose, 4 h after administration): 0.47 ± 0.25 g
